Assay results taken from publication PMC8479757 (Chemosphere, 2020).

Assays:
[1] = target: bovine serum albumin (BSA) (Bos taurus, UniProt P02769); type: binding; conditions: 310 K; for critical [PFAS]:[BSA] ratio denoting the shift from binding site to surface adsorption: Δδ begins to plateau
[2] = United States population, 2015–2016; cited from earlier work
[3] = estimated; cited from earlier work
[4] = system: HSA; conditions: 310 K; cited from earlier work

Sequence of bovine serum albumin (BSA) (P02769 25-607): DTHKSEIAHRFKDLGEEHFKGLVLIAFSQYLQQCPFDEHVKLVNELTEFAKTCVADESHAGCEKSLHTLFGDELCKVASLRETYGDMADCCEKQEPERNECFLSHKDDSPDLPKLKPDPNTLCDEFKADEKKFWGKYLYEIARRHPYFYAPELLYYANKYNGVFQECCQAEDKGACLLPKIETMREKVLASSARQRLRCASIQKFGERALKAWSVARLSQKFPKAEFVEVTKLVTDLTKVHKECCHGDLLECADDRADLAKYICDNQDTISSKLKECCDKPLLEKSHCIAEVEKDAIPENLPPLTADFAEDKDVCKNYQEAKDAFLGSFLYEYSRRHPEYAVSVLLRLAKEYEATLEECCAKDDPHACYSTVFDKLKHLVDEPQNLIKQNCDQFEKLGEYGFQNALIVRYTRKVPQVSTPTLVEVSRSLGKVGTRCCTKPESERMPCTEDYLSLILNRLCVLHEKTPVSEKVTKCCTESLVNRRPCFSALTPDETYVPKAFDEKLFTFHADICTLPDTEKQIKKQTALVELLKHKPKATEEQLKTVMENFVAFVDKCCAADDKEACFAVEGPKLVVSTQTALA

Row | Structure (SMILES) | critical [PFAS]:[BSA] ratio denoting the shift from binding site to surface adsorption [1] | average serum concentration [2] [µg/L] | Ka for binding to HSA [4] [mM⁻¹] | also measured
1 | O=S(=O)(O)C(F)(F)C(F)(F)C(F)(F)C(F)(F)C(F)(F)C(F)(F)F [PFHxS, perfluorohexanesulfonic acid] | 12–14 | 0.577 |  | 
2 | O=C(O)C(F)(F)C(F)(F)C(F)(F)C(F)(F)C(F)(F)C(F)(F)C(F)(F)C(F)(F)F [PFNA, perfluorononanoic acid] | 12–14 | 1.18 |  | half-life in humans [3]: 2.5 years
3 | O=C(O)C(F)(F)C(F)(F)C(F)(F)C(F)(F)C(F)(F)C(F)(F)C(F)(F)F [PFOA, perfluorooctanoic acid] | 12–14 | 1.56 |  | Kd ([1]; Ka (ω, terminal −CF3 position), BSA, pH 7.4 PBS, Ka=Kd^−1): 6.45 µM
4 | O=S(=O)(O)C(F)(F)C(F)(F)C(F)(F)C(F)(F)C(F)(F)C(F)(F)C(F)(F)C(F)(F)F [PFOS, perfluorooctanesulfonic acid] |  | 4.72 |  | Ka (ω, terminal −CF3 position) ([1]; BSA, pH 7.4 PBS, Ka=Kd^−1): 357 mM⁻¹; half-life in humans [3]: 5.4 years
5 | CCCCCCCCCC(=O)O [decanoic acid] |  |  | 100 | 
6 | CCCCCC(=O)O [hexanoic acid] |  |  | 15 | 
7 | CCCCCCCC(=O)O [octanoic acid] |  |  | 34 | 
